Source: publication PMC4192545, “Suramin Inhibits Hsp104 ATPase and Disaggregase Activity” (PLoS ONE, 2014)

What was measured:
[1] = system: HAP (Hsp104 variant) with ClpP; assay: FITC-casein degradation (substrate translocation) assay; assay type: biochemical; conditions: 25°C
Description: FITC-casein (0.1 µM) was incubated with HAP (1 µM hexamer) and ClpP (21 µM monomer) at 25°C. ATP ([…]) and an ATP-regenerating system were included in all reactions. Varying concentrations of Suramin (0, 25, or 100 µM) were included as noted. We monitored degradation of FITC-casein by measuring fluorescence (excitation 490 nm, emission 520 nm) using a Tecan Safire^2 microplate reader (Tecan, Männedorf, Switzerland).
Next, we established that Suramin hampers substrate translocation by Hsp104 using an engineered Hsp104 variant, HAP, which anchors to the bacterial peptidase ClpP to form a novel proteolytic system. Thus, HAP translocates fluorescein isothiocyanate (FITC)-casein for degradation by ClpP. Fluorescence increases as FITC is released from degraded casein and can be used as a surrogate for substrate translocation. […] Note that both the unfolding and translocation activities appear less sensitive to Suramin than disaggregase activity ( Figures 3B , 4A and 4B ). Thus, disaggregation of protein aggregates makes more stringent demands on the Hsp104 hexamer than the unfolding or translocation of soluble substrates. Altogether, we have established that Suramin greatly decreases Hsp104 ATPase activity, drastically impairs its capacity to refold luciferase and hinders its substrate unfolding and translocation activities.

Hsp104^A503V = target: T1, Hsp104^A503V (Saccharomyces cerevisiae, UniProt P31539, A503V); assay: biochemical; assay type: biochemical, yeast
T1 construct: made in house; host or cells: E. coli BL21-DE3 RIL
Description: (§1) Luciferase reactivation was performed as described, [37]. To assemble aggregates, firefly luciferase (50 µM) in luciferase refolding buffer (LRB, 25 mM HEPES-KOH, 7.4, 150 mM KAOc, 10 mM MgAOc, 10 mM DTT) with 6 M urea was incubated at 30°C for 20 min. Luciferase was then rapidly diluted 100-fold into LRB, divided into 100 µL aliquots, snap frozen in liquid N2, and stored at −80°C. For reactivation assays, aggregated luciferase (50 nM) was incubated with Hsp104 (1 µM hexamer), plus 2.6 mM ATPγS, 2.6 mM ATP and an ATP regeneration system (1 mM creatine phosphate, 0.25 µM creatine kinase (Roche Applied Science)) for 90 minutes at 25°C. Luciferase assay system was purchased from Promega. Luciferase activity was assessed by luminescence measured on a Safire^2 microplate reader (Tecan, Männedorf, Switzerland). The half maximal inhibitory concentration (IC50) was calculating by fitting luciferase-refolding data at different Suramin concentrations with Prism (GraphPad Software, Inc., La Jolla, CA).
(§2) (A) Hsp104 variants (0.25 µM monomer) were incubated for 10 min with ATP (1 mM) and varying concentrations of Suramin. The amount of Pi produced was measured by absorbance at 635 nm. Absorbance values were normalized to the absorbance produced by each Hsp104 variant in the absence of inhibitor. Values represent mean ±S.D. (n = 6). (B) Urea-denatured firefly luciferase aggregates were incubated for 90 min at 25°C with Hsp104 variants (1 µM hexamer) plus 1∶1 mixtures of ATP and ATPγS (or ATP alone) and varying concentrations of Suramin. Luciferase reactivation was then determined and normalized to untreated disaggregase activity for each variant in the presence of ATPγS: ATP (or ATP alone). 1∶1 mixtures of ATP and ATPγS were used for Hsp104^WT and Hsp104^T317A, while ATP alone was used for Hsp104^A503V and Hsp104^N728A. Values represent mean ±S.D. (n = 6–12).

Hsp104^N728A = target: T2, Hsp104^N728A (Saccharomyces cerevisiae, UniProt P31539, N728A); assay: biochemical; assay type: biochemical, yeast; conditions: for Hsp104^N728A refolding activity: ATP alone
T2 construct: made in house; host or cells: E. coli BL21-DE3 RIL
Description: as §1, §2

Hsp104^T317A = target: T3, Hsp104^T317A (Saccharomyces cerevisiae, UniProt P31539, T317A); assay: Luciferase reactivation, Hsp104^T317A; assay type: biochemical, yeast; conditions: ATP:ATPγS 1:1
T3 construct: made in house; host or cells: E. coli BL21-DE3 RIL
Description: as §1
as §2, with “Figure 7 Hsp104 variants respond differently to Suramin than Hsp104^WT. (A)” for “(A)”

T3 sequence (P31539 whole entry T317A): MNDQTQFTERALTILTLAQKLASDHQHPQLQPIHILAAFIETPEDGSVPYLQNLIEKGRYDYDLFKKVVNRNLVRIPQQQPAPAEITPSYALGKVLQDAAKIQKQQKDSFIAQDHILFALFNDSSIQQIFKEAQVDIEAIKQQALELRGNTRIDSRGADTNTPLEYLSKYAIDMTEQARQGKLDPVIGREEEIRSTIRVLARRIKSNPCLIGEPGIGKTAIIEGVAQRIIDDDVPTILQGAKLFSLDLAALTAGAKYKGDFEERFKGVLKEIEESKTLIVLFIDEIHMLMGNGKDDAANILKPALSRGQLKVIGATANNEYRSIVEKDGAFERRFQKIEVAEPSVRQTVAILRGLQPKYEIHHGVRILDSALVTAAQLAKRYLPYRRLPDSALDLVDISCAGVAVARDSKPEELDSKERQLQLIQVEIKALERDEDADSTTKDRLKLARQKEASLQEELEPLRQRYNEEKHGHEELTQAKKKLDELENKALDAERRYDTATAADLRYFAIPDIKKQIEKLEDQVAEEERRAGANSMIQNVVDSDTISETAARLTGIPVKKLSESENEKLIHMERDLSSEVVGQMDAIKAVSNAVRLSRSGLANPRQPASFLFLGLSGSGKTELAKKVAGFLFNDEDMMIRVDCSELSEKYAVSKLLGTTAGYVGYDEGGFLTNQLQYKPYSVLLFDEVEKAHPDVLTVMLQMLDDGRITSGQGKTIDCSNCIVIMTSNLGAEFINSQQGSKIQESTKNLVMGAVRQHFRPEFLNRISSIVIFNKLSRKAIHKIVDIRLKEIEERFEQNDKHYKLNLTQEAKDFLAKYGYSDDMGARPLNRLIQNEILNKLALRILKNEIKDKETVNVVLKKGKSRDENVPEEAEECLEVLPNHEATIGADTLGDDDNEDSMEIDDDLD
T2 sequence (P31539 whole entry N728A): as the sequence (P31539 whole entry T317A) above, with A317T, N728A counted along it
T1 sequence (P31539 whole entry A503V): as the sequence (P31539 whole entry T317A) above, with A317T, A503V counted along it

SMILES: Cc1ccc(C(=O)Nc2ccc(S(=O)(=O)O)c3cc(S(=O)(=O)O)cc(S(=O)(=O)O)c23)cc1NC(=O)c1cccc(NC(=O)Nc2cccc(C(=O)Nc3cc(C(=O)Nc4ccc(S(=O)(=O)O)c5cc(S(=O)(=O)O)cc(S(=O)(=O)O)c45)ccc3C)c2)c1 [Suramin]
- Effect on substrate translocation (FITC-casein degradation by HAP/ClpP) ([1]; Suramin 25 µM): permits translocation activity equivalent to that by untreated HAP in conjunction with ClpP
- Effect on substrate translocation (FITC-casein degradation by HAP/ClpP) ([1]; Suramin 100 µM): completely abolished substrate translocation
- IC50 (Hsp104^A503V): ~0.61 µM
- Hsp104^A503V refolding activity (Hsp104^A503V; Suramin 1 µM, ATP alone): less than 50%
- IC50 (Hsp104^N728A): ~92.4 µM
- Hsp104^N728A refolding activity (Hsp104^N728A; Suramin 1 µM): ~100%
- Hsp104^N728A refolding activity (Hsp104^N728A; Suramin 50 µM): ~36%
- Hsp104^T317A refolding activity (Hsp104^T317A; Suramin 1 µM): approximately 75%
- Hsp104^T317A refolding activity (Hsp104^T317A; Suramin 50 µM): approximately 8%
- IC50 (Hsp104^T317A; based on refolding data): ~20.5 µM
